Results from US6881577B2, “Method for improving transfection efficiency” (Max-Delbrück-Centrum für Molekulare Medizin, priority 2000, dated 2005).

What was measured:
[1] = system: human colon carcinoma cells (HCT 116); test: Transfection of HCT 116 cells with plasmid DNA/peptide complexes (with or without LIPOFECTIN), luciferase reporter gene expression; format: cell-based
Source text: Complexes consisting in plasmid DNA, peptide and lipid were formed and used in transfection experiments of human colon carcinoma cells (HCT 116) in vitro. The luciferase reporter gene was used in order to measure the transfection efficiency.
In addition to the construction of the mentioned K16 peptides the invention consists in the construction of DNA-peptide-lipid-complexes. A critical issue is thereby the composition of the complexes through the selection of an appropriate peptide to DNA charge ratio as well as an appropriate amount of the lipid. The procedure of complex formation (involving concentrations, volume, buffer type, incubation time and the order by which the elements are sequentially added to the mixture, see FIGS. 1-3 and 4-6) is also a critical factor determining the transfection efficiency of the system.
Based on the above described procedure for the optimization of DNA-peptide-lipid-complexes different complexes containing plasmid DNA, the K16-CYC peptide and cationic liposome (LIPOFECTIN®) were formed and subsequently used in transfection experiments of HCT 116 cells.
Complexes were formed containing plasmid DNA, the K16-VprN peptide and cationic liposome (LIPOFECTIN®) and subsequently used in transfection experiments of HCT 116 cells.
In both applications, the K16-mVprN peptide was used as a control peptide instead of the K16-VprN peptide.

[2] = Dynamic light scattering of peptide/DNA complexes (apparent size, light scattering intensity); format: physicochemical; details: for relative size of the complexes on dilution: peptide/DNA complexes diluted up to 1:16, FIGS. 13 and 14
Description: In order to exclude the possibility that the observed enhancement of the transfection efficiency was mainly related to a more favorable complex formation process when using the K16-VprN peptide, size measurements (FIG. 11) and the determination of the relative particle number (FIG. 12) using dynamic light scattering were performed. […] Indeed, at a peptide to DNA charge ratio of 3 the K16-VprN peptide generates a three-fold increase of the light scattering intensity and an increase of the reporter gene expression of at least 100-times, as compared to K16-mVprN. At a peptide to DNA charge ratio of 9 the light scattering intensity increases twice as compared to charge ratio 3. However, in these conditions the reporter gene expression only increases 10 fold.
The complexes were subsequently diluted up to 1:16 and subjected to dynamic light scattering measurements.

[3] = peptide/DNA complex without lipid, FIG. 10

| Substance | reporter gene expression following transfection, compared to the K16-NLS peptide ([1]; complexes of plasmid DNA, peptide and LIPOFECTIN (0.5 or 1 μl), FIGS. 7 and 8) | particle size of DNA complexes compared to K16-mVprN ([2]; dynamic light scattering, FIG. 11) | increase of the light scattering intensity compared to K16-mVprN ([2]; peptide to DNA charge ratio of 3, FIG. 12) | increase of light scattering intensity compared to charge ratio 3 ([2]; peptide to DNA charge ratio of 9, FIG. 12) | relative size of the complexes on dilution ([2]; dynamic light scattering) | increase of the reporter gene expression compared to K16-mVprN ([1]; peptide to DNA charge ratio of 3, without lipid, FIG. 10) | increase of the reporter gene expression ([1]; peptide to DNA charge ratio of 9, without lipid, FIG. 10) [fold] | amount of peptide giving the highest gene expression, less than for K16-mVprN [1, 3] [times] | increase of the maximum reporter gene expression level compared to K16-mVprN [1, 3] [fold] | reporter gene expression compared to the control peptide K16-mVprN ([1]; with and without LIPOFECTIN, FIGS. 9 and 10) |
| --- | --- | --- | --- | --- | --- | --- | --- | --- | --- | --- |
| -VKLKVYPLKKKRKP- [K16-CYC] | dramatic increase | – | – | – | – | – | – | – | – | – |
| KKKKKKKKKKKKKKKKGGGCNEWTLELLEELKNEAVRHF [K16-VprN] | – | no significant difference | three-fold | twice | remains nearly constant | at least 100 times | 10 | 12 | 10 | significant increase |
| KKKKKKKKKKKKKKKKGGGNEATLELLPELKNPAVRHF (Synthetic peptide sequence, K16-mVprN, that carries 16 lysine residues for the binding of the peptide to the plasmid DNA.) | – | – | – | – | remains nearly constant | – | – | – | – | – |
